Patent US7368462B1, “Melanin concentrating hormone antagonists” (The Procter & Gamble Company, priority 2004, dated 2008)

Key:
MCH1R = MCH1R (UniProt Q99705); test: MCH1R competition binding assay
Method: In vitro binding and function assays are performed on membranes derived from cells or tissues expressing endogenous MCH1R. Competition binding assays are performed to identify high affinity compounds. Briefly, either radiolabeled or europium labeled MCH with varying concentrations of competitor compound which are incubated with membranes expressing the receptor. Rat brain membrane or cell lines, including but not limited to human Kelly neuroblastoma cells, A-431 epidermoid cells, and rat PC-12 cells are known to express endogenous MCH1R and are used in the assay. Binding is allowed to proceed until equilibrium is reached then bound labeled MCH is separated from free MCH by capturing membranes onto a filter. The filters are washed to remove loosely associated MCH and labeled MCH is quantified. Data is analyzed and IC50 and Ki are calculated to determine compound affinity.

5-HT2c receptor = molecular target: T1, 5-HT2c receptor (Homo sapiens, UniProt P28335); test: 5-HT2c receptor binding assay (3H-mesulergine competition)
T1 sequence (P28335 33-458): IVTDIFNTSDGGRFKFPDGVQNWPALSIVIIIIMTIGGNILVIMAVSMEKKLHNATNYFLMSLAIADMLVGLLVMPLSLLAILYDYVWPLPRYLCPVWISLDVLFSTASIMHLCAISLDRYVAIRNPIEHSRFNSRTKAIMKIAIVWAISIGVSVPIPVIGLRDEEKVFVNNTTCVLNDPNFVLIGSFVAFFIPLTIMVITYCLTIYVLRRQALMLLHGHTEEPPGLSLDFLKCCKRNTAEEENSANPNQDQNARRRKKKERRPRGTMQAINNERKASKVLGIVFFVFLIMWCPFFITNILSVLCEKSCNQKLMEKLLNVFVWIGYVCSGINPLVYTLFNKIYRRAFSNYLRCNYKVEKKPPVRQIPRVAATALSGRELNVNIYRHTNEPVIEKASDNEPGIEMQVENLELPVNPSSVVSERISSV
Method: Binding assays for serotonin receptor, 5-HT2c receptor MCH antagonist compounds are evaluated for binding to the serotonin 5-HT2c receptor to determine receptor selectivity. Binding activity is assessed using a competitive assay with ^3H-mesulergine (Perkin Elmer), a 5-HT2c selective ligand, on membrane containing the 5-HT2c receptor. Briefly, 1 nM ^3H-mesulergine and varying concentrations of the compound are incubated with 5-HT2c receptor membranes, following an incubation period, the membranes are washed and ^3H-mesulergine bound to membranes is measured in a liquid scintillation counter. The amount of bound ^3H-mesulergine at the varying concentration of competitor compound is used to derive the affinity (Ki) of the compound for the 5-HT2c receptor. 5-HT2c receptor containing membranes are readily available from several companies including Perkin-Elmer and Euroscreen.

Row | IC50 (MCH1R) [nM] | IC50 (5-HT2c receptor) [nM] | Structure (SMILES)
1 | 12 | 1130 | CN(C)Cc1ccc2c(CNC(=O)c3ccc(-c4ccc(F)cc4)cc3)cccc2c1 [4′-Fluoro-biphenyl-4-carboxylic acid (6-dimethylaminomethyl-naphthalen-1-ylmethyl)-amide]
2 | 70 | 2060 | CCN(CC)Cc1ccc2c(CN(C)C(=O)c3ccc(-c4ccc(C(F)(F)F)cc4)cc3)cccc2c1 [4′-Trifluoromethyl-biphenyl-4-carboxylic acid (6-diethylaminomethyl-naphthalen-1-ylmethyl)-methyl-amide]
